Test results published in US6248718A, “Lesion-directed dry dosage forms of antibacterial agents for the treatment of acute mucosal infections of the oral cavity” (priority 1999, dated 2001).
Where “and” joins values, the source holds several entries; their conditions need not be identical. Identical values can stand only once.

Columns and labels:
[1] = Local concentrations of penicillin in saliva after penicillin G potassium 50 mg tablet (Example IX); format: in vivo, human
Description: Five healthy adult volunteers, three men and two women, were selected for this study.
On the day of study, two hours after breakfast, the volunteers were given a single tablet of the drug, placed in the right oral sulcus between the lower gum and the buccal mucosa to be dissolved in a minimum amount of saliva in about six (6) minutes. This loculated pocket of saliva was not to be swallowed and was not to be further diluted by saliva from other parts of the mouth for one hour. At 6 minutes, 20 minutes, 40 minutes and 60 minutes after drug application, an aliquot of 0.01 ml was aspirated from this pocket of saliva and added into a test tube containing 10 ml of nutrient broth to give a 1,000 times dilution. After being mixed well, aliquots of the mixtures of saliva sample and nutrient broth were forced to pass through bacterial filters into sterile test tubes. Thcn 0.8 ml of each 1:1,000 diluted filtrate was pipetted and added to 3.2 ml of nutrient broth to make an additional 5 times dilution in a volume of 4 ml. Two ml was pipetted from the latter to make a serial double dilution of saliva sample in 2 ml of nutrient broth, as described above under a, in 12 test tubes. The dilution factor for the saliva sample in test No. 1 was 5,000 and […] progressively to 1:10,240,000 in test tube No.12.
Each filtered mixture in test tube was inoculated with 0.1 ml of a 1:1,000 dilution of a 12 hour broth culture of Staphyloccus aureus ATCC 29213.
(§1) A row of 6 test tubes each containing 2 ml of nutrient broth with decreasing concentrations of penicillin G potassium, USP Reference Standard 502508, at 6.2, 3.1, 1.5, 0.75, 0.32, and 0.16 mcg/ml, using a serial double dilution method described in a., was prepared and similarly inoculated with 0.1 ml broth culture of Staphyloccus aureus ATCC 29213 as the standard.
(§2) All test tubes were incubated at 37° C. for 18 hours and observed for bacterial growth against an inoculated broth containing neither antibiotic nor saliva samples.
The test tube of highest number with the highest dilution factor of saliva in nutrient broth in which no bacterial growth was observed was interpreted as containing an equivalent of penicillin G potassium at 0.75 mcg/ml. Using the dilution factors, it was calculated that, after topical application of the drug product, the concentrations of penicillin G potassium in the saliva at the site of medication within the first hour were as follows.

[2] = Local concentrations of penicillin in saliva after topical medication of various doses (Example VII); format: in vivo, human; details: for Penicillin concentration in saliva / concentration at 0.1 h / concentration at 20 min / concentration at 40 min / concentration at 1 h / concentration at 2 h: studies 1-3; for concentration at 0.1 h / concentration at 20 min / concentration at 40 min / concentration at 1 h / concentration at 2 h: human, in vivo, topical or ocular; for concentration at 2 h: 120 min, after water at 60 min
Description: Five healthy adult volunteers, three men and two women, were selected for this study. The same volunteers were used as the subjects for three studies, and the results are summarized as follows.
On the day of study, two hours after breakfast, the volunteers were given a dose of 100 mg, 50 mg, 20 mg, 10 mg and 2 mg of USP grade penicillin G potassium powder respectively. The drug powder was placed in the right oral sulcus between the lower gum and the buccal mucosa to be dissolved in a minimum amount of saliva. This loculated pocket of saliva was not to be swallowed and was not to be further diluted by saliva from other parts of the mouth for one hour. At 6 minutes, 20 minutes, 40 minutes and 60 minutes after drug application, an aliquot of 0.01 ml was taken from this pocket of saliva and added into a test tube containing 10 ml of nutrient broth to give a 1,000 times dilution. After being mixed well, aliquots of the mixtures of saliva sample and nutrient broth were forced to pass through bacterial filters into sterile test tubes. Then 0.8 ml of each 1:1,000 diluted filtrate was pipetted and added to 3.2 ml of nutrient broth to make an additional 5 times dilution in a total volume of 4 ml. Two ml was pipetted from the latter to make a serial double dilution of saliva sample in 2 ml of nutrient broth, as described above under a, in 12 test tubes. The dilution factor for the saliva sample in test No. 1 was 1:5,000 and increased progressively to 1:10,240,000 in test tube No. 12.
After the 60-minute sample was taken, the subjects were given an 8 oz. glass of water to drink or to rinse his or her mouth, but refrained from drinking and eating for another hour. At the end of this last hour, i.e. about 2 hours after the drug application, another saliva sample of 0.2 ml was withdrawn and added to 3.8 ml of nutrient broth to make a 1:20 dilution and the mixture was forced to pass a bacterial filter into a sterile test tube. Two (2 ) ml of the filtrate was pipetted from this 1:20 diluted mixture for antibiotic activity assays.
Each filtered mixture in test tube was inoculated with 0.1 ml of a 1:1,000 dilution of a 12 hour broth culture of Staphylococcus aureus ATCC 29213.
as §1, with “potassium from 6.2 to” for “potassium, USP Reference Standard 502508, at 6.2, 3.1, 1.5, 0.75, 0.32, and”, “Staphylococcus” for “Staphyloccus”
as §2
The test tube of the highest number with the highest dilution factor of saliva in nutrient broth in which no bacterial growth was observed was interpreted as containing an equivalent of penicillin G potassium at 0.75 mcg/ml. Using the dilution factors, it was calculated that, after topical application of 2 to 100 mg of penicillin G potassium dry powder, the concentrations of penicillin G potassium in the saliva at the site of medication within the first hour and one hour after purging the mouth with water were as follows.

CC1(C)S[C@@H]2[C@H](NC(=O)Cc3ccccc3)C(=O)N2[C@H]1C(=O)O [penicillin G potassium]
concentration at 0.1 h ([1]; human, saliva, topical or ocular, 50 mg tablet, 6 min): 240000 to 480000 µg/mL
concentration at 20 min ([1]; human, saliva, topical or ocular, 50 mg tablet, 20 min): 120000 to 240000 µg/mL
concentration at 40 min ([1]; human, saliva, topical or ocular, 50 mg tablet, 40 min): 30000 to 60000 µg/mL
concentration at 1 h ([1]; human, saliva, topical or ocular, 50 mg tablet, 60 min): 7500 to 15000 µg/mL
initial local concentration in saliva ([1]; tablet of 50 mg penicillin G potassium): about 480 mg/ml
local concentration in saliva in one hour ([1]; tablet of 50 mg penicillin G potassium, 60 min): 7.5 to 15 mg/mL
Penicillin concentration in saliva ([2]; 2 mg topical powder, 20 min): below 3.75 mg/ml
Penicillin concentration in saliva ([2]; 2 mg topical powder, 20 min, listed as Penicillin G Potassium): < 3.75 mg/mL
Penicillin concentration in saliva ([2]; 2 mg topical powder, 40 min): < 3.75 mg/mL
Penicillin concentration in saliva ([2]; 2 mg topical powder, 60 min): < 3.75 mg/mL
Penicillin concentration in saliva ([2]; 10 mg topical powder, 6 min): 60 mg/mL
Penicillin concentration in saliva ([2]; 10 mg topical powder, 60 min): 3.75 mg/mL and 7.5 mg/mL
Penicillin concentration in saliva ([2]; 20 mg topical powder, 6 min): 240 mg/mL and 120 mg/mL
Penicillin concentration in saliva ([2]; 20 mg topical powder, 20 min): 60 mg/mL
Penicillin concentration in saliva ([2]; 20 mg topical powder, 60 min): 7.5 mg/mL
Penicillin concentration in saliva ([2]; 50 mg topical powder, 6 min): 240 mg/mL and 480 mg/mL
Penicillin concentration in saliva ([2]; 50 mg topical powder, 20 min): 120 mg/mL and 240 mg/mL
Penicillin concentration in saliva ([2]; 50 mg topical powder, 60 min): 7.5 mg/mL
Penicillin concentration in saliva ([2]; 100 mg topical powder, 6 min): 480 mg/mL
Penicillin concentration in saliva ([2]; 100 mg topical powder, 20 min): 240 mg/mL and 120 mg/mL
Penicillin concentration in saliva ([2]; 100 mg topical powder, 40 min): 60 mg/mL
Penicillin concentration in saliva ([2]; 100 mg topical powder, 60 min): 30 mg/mL and 15 mg/mL
initial peak concentrations at the site of medication ([2]; doses of 2 mg to 100 mg powder): 7.5 to 960 mg/mL
dose required to maintain minimum 3.75 mg/ml in saliva for one hour ([2]; dry powder): at least 10 mg
concentration at 0.1 h ([2]; 2 mg topical powder, 6 min): 15000 µg/mL
concentration at 20 min ([2]; 2 mg topical powder, 20 min): 7500 µg/mL
concentration at 40 min ([2]; 2 mg topical powder, 40 min): 3750 µg/mL
concentration at 1 h ([2]; 2 mg topical powder, 60 min): < 3750 µg/mL
concentration at 2 h ([2]; 2 mg topical powder): < 15 µg/mL
concentration at 0.1 h ([2]; 10 mg topical powder, 6 min): 60000 µg/mL
concentration at 20 min ([2]; 10 mg topical powder, 20 min): 30000 µg/mL
concentration at 40 min ([2]; 10 mg topical powder, 40 min): 15000 µg/mL
concentration at 1 h ([2]; 10 mg topical powder, 60 min): 3750 µg/mL
concentration at 2 h ([2]; 10 mg topical powder): < 15 µg/mL
concentration at 0.1 h ([2]; 20 mg topical powder, 6 min): 120000 µg/mL
concentration at 20 min ([2]; 20 mg topical powder, 20 min): 60000 µg/mL
concentration at 40 min ([2]; 20 mg topical powder, 40 min): 7500 µg/mL
concentration at 1 h ([2]; 20 mg topical powder, 60 min): 7500 µg/mL
concentration at 2 h ([2]; 20 mg topical powder): < 15 µg/mL
concentration at 0.1 h ([2]; 50 mg topical powder, 6 min): 480000 µg/mL
concentration at 20 min ([2]; 50 mg topical powder, 20 min): 240000 µg/mL
concentration at 40 min ([2]; 50 mg topical powder, 40 min): 30000 µg/mL
concentration at 1 h ([2]; 50 mg topical powder, 60 min): 7500 µg/mL
concentration at 2 h ([2]; 50 mg topical powder): < 15 µg/mL
concentration at 0.1 h ([2]; 100 mg topical powder, 6 min): 960000 µg/mL
concentration at 20 min ([2]; 100 mg topical powder, 20 min): 240000 µg/mL
concentration at 40 min ([2]; 100 mg topical powder, 40 min): 30000 µg/mL
concentration at 1 h ([2]; 100 mg topical powder, 60 min): 15000 µg/mL
concentration at 2 h ([2]; 100 mg topical powder): < 15 µg/mL
concentration in saliva after drinking ([2]; one hour after 8 oz. of fluid, all doses): < 15 µg/mL
